Test results from patent US20250179061A1 (SIRONAX LTD., priority 2022, published 2025).

Each compound was assayed on HT-29 cells (assay: HT-29 necroptosis cell viability assay (TNF-α/SMAC mimetic/zVAD-FMK, CellTiter-Glo)). Conditions: Homo sapiens, HT-29, HT-29 cells, necroptosis induced by TNF-α/SMAC mimetic/zVAD-FMK, CellTiter-Glo; read-out: Activity (IC50 class).
Assay type: cell-based
Method in brief: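 HT-29 cells (~5,000/well, overnight) in FBS-free McCoy's 5A with TNF-α 10 ng/ml, SMAC mimetic 6 μM and zVAD-FMK 10 μM plus 10-point 1:3 compound titration, 20 h at 37°C. ATP measured by CellTiter-Glo luminescence; IC50 as geometric mean of duplicates.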

Question: `CC(C)(C)CNC(=O)c1cc(Oc2ccc(-n3ncn(Cc4c(F)cccc4F)c3=O)cc2)ccn1` [Example 660, 4-(4-(4-(2,6-difluorobenzyl)-5-oxo-4,5-dihydro-1H-1,2,4-triazol-1-yl)phenoxy)-N-neopentylpicolinamide] was tested. Which IC50 did it give?
Answer: Its IC50 is 0.1 to 1 µM.

Same assay, conditions: Homo sapiens, HT-29, HT-29 necroptosis cell viability assay; class symbols for IC50; read-out: Activity

Question: Which IC50 does the source give for `O=c1n(Cc2c(F)cccc2F)cnn1-c1ccc(Oc2ccnc(NC3CC4(COC4)C3)c2)cc1` [Example 530, 2-(4-((2-((2-oxaspiro[3.3]heptan-6-yl)amino)pyridin-4-yl)oxy)phenyl)-4-(2,6-difluorobenzyl)-2,4-dihydro-3H-1,2,4-triazol-3-one] here?
Answer: Its IC50 is 0.1 to 1 µM.

Question: Which IC50 does the source give for `Cc1nn(Cc2ccc(-n3ncn(Cc4c(F)cccc4F)c3=O)cc2)c(C)c1N` [Example 193, 2-(4-((4-amino-3,5-dimethyl-1H-pyrazol-1-yl)methyl)phenyl)-4-(2,6-difluorobenzyl)-2,4-dihydro-3H-1,2,4-triazol-3-one] here?
Answer: The IC50 was 1 to 10 µM.

Question: For `O=c1n(Cc2c(F)cccc2F)cnn1-c1ccc(Oc2ccnc(N3CCCCC3)c2)cc1` [Example 529, 4-(2,6-difluorobenzyl)-2-(4-((2-(piperidin-1-yl)pyridin-4-yl)oxy)phenyl)-2,4-dihydro-3H-1,2,4-triazol-3-one], which IC50 is on record?
Answer: Its IC50 is 0.1 to 1 µM.

Question: For `CCOC1(C)CN(c2nccc(Oc3ccc(-n4ncn(Cc5c(F)cccc5F)c4=O)cc3Cl)c2F)C1` [Example 502, 2-(3-chloro-4-((2-(3-ethoxy-3-methylazetidin-1-yl)-3-fluoropyridin-4-yl)oxy)phenyl)-4-(2,6-difluorobenzyl)-2,4-dihydro-3H-1,2,4-triazol-3-one], which IC50 is on record?
Answer: Its IC50 is < 0.1 µM.

Question: With `Cc1nc([C@H](C)O)sc1Oc1ccc(-n2nc3n(c2=O)[C@H](c2ccccc2)CC3)cc1F` (single isomer, unassigned) [Example 151] as the compound, how does the IC50 read?
Answer: Its IC50 is < 0.1 µM.

Question: How did the IC50 turn out when `CCOC(=O)c1nc(C)n(Cc2ccc(-n3ncn(Cc4c(F)cccc4F)c3=O)cc2F)c1C` [Example 215, ethyl 1-(4-(4-(2,6-difluorobenzyl)-5-oxo-4,5-dihydro-1H-1,2,4-triazol-1-yl)-2-fluorobenzyl)-2,5-dimethyl-1H-imidazole-4-carboxylate] was run?
Answer: The IC50 was < 0.1 µM.

Question: Which IC50 does the source give for `COc1cc(S(=O)(=O)c2ccc(-n3ncn(Cc4ccccc4)c3=O)cc2)ccn1` [Example 616, 4-benzyl-2-(4-((2-methoxypyridin-4-yl)sulfonyl)phenyl)-2,4-dihydro-3H-1,2,4-triazol-3-one] here?
Answer: The IC50 was < 0.1 µM.

Question: Which IC50 does the source give for `Cc1nc(CN)sc1Oc1ccc(-n2ncn(Cc3c(F)cccc3F)c2=O)cc1` [Example 160, 2-(4-((2-(aminomethyl)-4-methylthiazol-5-yl)oxy)phenyl)-4-(2,6-difluorobenzyl)-2,4-dihydro-3H-1,2,4-triazol-3-one] here?
Answer: Its IC50 is 0.1 to 1 µM.

Question: `CC1(N)CN(c2nc(C(F)F)c(Oc3ccc(-n4ncn(Cc5c(F)cccc5F)c4=O)cc3F)s2)C1` [Example 153, 2-(4-((2-(3-amino-3-methylazetidin-1-yl)-4-(difluoromethyl)thiazol-5-yl)oxy)-3-fluorophenyl)-4-(2,6-difluorobenzyl)-2,4-dihydro-3H-1,2,4-triazol-3-one] was tested. Which IC50 did it give?
Answer: Its IC50 is < 0.1 µM.

Same assay, conditions: Homo sapiens, HT-29, HT-29 necroptosis cell viability, IC50 class symbols; read-out: Activity

Question: With `CCNc1cc(Oc2ccc(-n3ncn(Cc4c(F)cccc4F)c3=O)cc2)ccn1` [Example 346, 4-(2,6-difluorobenzyl)-2-(4-((2-(ethylamino)pyridin-4-yl)oxy)phenyl)-2,4-dihydro-3H-1,2,4-triazol-3-one] as the compound, how does the IC50 read?
Answer: Its IC50 is 0.1 to 1 µM.

Question: Which IC50 does the source give for `O=c1n(Cc2c(F)cccc2F)cnn1-c1ccc(Oc2cc(N3CC4(COC4)C3)ncc2F)c(F)c1` [Example 237, 4-(2,6-difluorobenzyl)-2-(3-fluoro-4-((5-fluoro-2-(2-oxa-6-azaspiro[3.3]heptan-6-yl)pyridin-4-yl)oxy)phenyl)-2,4-dihydro-3H-1,2,4-triazol-3-one] here?
Answer: Its IC50 is < 0.1 µM.

Question: `CC1(C#N)CN(c2cc(Oc3ccc(-n4ncn(Cc5c(F)cccc5F)c4=O)cc3F)c(Cl)cn2)C1` [Example 257, 1-(5-chloro-4-(4-(4-(2,6-difluorobenzyl)-5-oxo-4,5-dihydro-1H-1,2,4-triazol-1-yl)-2-fluorophenoxy)pyridin-2-yl)-3-methylazetidine-3-carbonitrile] was tested. Which IC50 did it give?
Answer: The IC50 was < 0.1 µM.

Question: Which IC50 does the source give for `N#CC1CN(c2cc(Oc3ccc(-n4ncn(Cc5c(F)cccc5F)c4=O)cc3)ccn2)CC1O` (stereo not shown) [Example 264, 1-(4-(4-(4-(2,6-difluorobenzyl)-5-oxo-4,5-dihydro-1H-1,2,4-triazol-1-yl)phenoxy)pyridin-2-yl)-4-hydroxypyrrolidine-3-carbonitrile] here?
Answer: The IC50 was < 0.1 µM.

Question: Which IC50 does the source give for `O=c1n(Cc2c(F)cccc2F)cnn1-c1ccc(Oc2cc(N3CC4(CNC4)C3)ncc2F)c(F)c1` [Example 418, 4-(2,6-difluorobenzyl)-2-(3-fluoro-4-((5-fluoro-2-(2,6-diazaspiro[3.3]heptan-2-yl)pyridin-4-yl)oxy)phenyl)-2,4-dihydro-3H-1,2,4-triazol-3-one] here?
Answer: The IC50 was < 0.1 µM.

Question: How did the IC50 turn out when `CC1(N)CN(c2cc(Oc3ccc(-n4ncn(Cc5c(F)cccc5F)c4=O)cc3F)c(Cl)cn2)C1` [Example 421, 2-(4-((2-(3-amino-3-methylazetidin-1-yl)-5-chloropyridin-4-yl)oxy)-3-fluorophenyl)-4-(2,6-difluorobenzyl)-2,4-dihydro-3H-1,2,4-triazol-3-one] was run?
Answer: Its IC50 is < 0.1 µM.

Question: For `NC12CC(Nc3cc(Oc4ccc(-n5ncn(Cc6c(F)cccc6F)c5=O)cc4)ccn3)(C1)C2` [Example 354, 2-(4-((2-((3-aminobicyclo[1.1.1]pentan-1-yl)amino)pyridin-4-yl)oxy)phenyl)-4-(2,6-difluorobenzyl)-2,4-dihydro-3H-1,2,4-triazol-3-one], which IC50 is on record?
Answer: Its IC50 is 0.1 to 1 µM.

Question: How did the IC50 turn out when `CC1(C)CC(=O)N(c2cc(Oc3ccc(-n4ncn(Cc5c(F)cccc5F)c4=O)cc3)ccn2)C1` [Example 254, 4-(2,6-difluorobenzyl)-2-(4-((2-(4,4-dimethyl-2-oxopyrrolidin-1-yl)pyridin-4-yl)oxy)phenyl)-2,4-dihydro-3H-1,2,4-triazol-3-one] was run?
Answer: The IC50 was 0.1 to 1 µM.

Question: With `C[C@H]1C[C@@H](N)CN1c1cc(Oc2ccc(-n3ncn(Cc4c(F)cccc4F)c3=O)cc2F)ccn1` [Example 369, 2-(4-((2-((2S,4R)-4-amino-2-methylpyrrolidin-1-yl)pyridin-4-yl)oxy)-3-fluorophenyl)-4-(2,6-difluorobenzyl)-2,4-dihydro-3H-1,2,4-triazol-3-one] as the compound, how does the IC50 read?
Answer: Its IC50 is < 0.1 µM.

Question: For `CC(C)(C)OC(=O)NC[C@H]1CCN1c1cc(Oc2ccc(-n3ncn(Cc4c(F)cccc4F)c3=O)cc2F)c(F)cn1` [Example 373, tert-butyl (R)-((1-(4-(4-(4-(2,6-difluorobenzyl)-5-oxo-4,5-dihydro-1H-1,2,4-triazol-1-yl)-2-fluorophenoxy)-5-fluoropyridin-2-yl)azetidin-2-yl)methyl)carbamate], which IC50 is on record?
Answer: Its IC50 is < 0.1 µM.

Question: How did the IC50 turn out when `CC1(O)CN(c2cc(Oc3ncc(-n4ncn(Cc5c(F)cccc5F)c4=O)cc3F)ccn2)C1` [Example 249, 4-(2,6-difluorobenzyl)-2-(5-fluoro-6-((2-(3-hydroxy-3-methylazetidin-1-yl)pyridin-4-yl)oxy)pyridin-3-yl)-2,4-dihydro-3H-1,2,4-triazol-3-one] was run?
Answer: The IC50 was 0.1 to 1 µM.

Question: With `N#C[C@@H]1CCN(c2cc(Oc3ccc(-n4ncn(Cc5c(F)cccc5F)c4=O)cc3)ccn2)C1` [Example 400, (R)-1-(4-(4-(4-(2,6-difluorobenzyl)-5-oxo-4,5-dihydro-1H-1,2,4-triazol-1-yl)phenoxy)pyridin-2-yl)pyrrolidine-3-carbonitrile] as the compound, how does the IC50 read?
Answer: The IC50 was < 0.1 µM.

Question: For `Cn1ncc(N)c1Oc1ccc(-n2ncn(Cc3c(F)cccc3F)c2=O)cc1` [Example 443, 2-(4-((4-amino-1-methyl-1H-pyrazol-5-yl)oxy)phenyl)-4-(2,6-difluorobenzyl)-2,4-dihydro-3H-1,2,4-triazol-3-one], which IC50 is on record?
Answer: The IC50 was 0.1 to 1 µM.

Question: Which IC50 does the source give for `C[C@H]1[C@@H](NC(=O)OC(C)(C)C)CN1c1cc(Oc2ccc(-n3ncn(Cc4c(F)cccc4F)c3=O)cc2F)c(F)cn1` [Example 291, tert-butyl ((2S,3S)-1-(4-(4-(4-(2,6-difluorobenzyl)-5-oxo-4,5-dihydro-1H-1,2,4-triazol-1-yl)-2-fluorophenoxy)-5-fluoropyridin-2-yl)-2-methylazetidin-3-yl)carbamate] here?
Answer: Its IC50 is < 0.1 µM.

Question: `COC1(C#N)CN(c2nccc(Oc3ccc(-n4ncn(Cc5c(F)cccc5F)c4=O)cc3)c2F)C1` [Example 358, 1-(4-(4-(4-(2,6-difluorobenzyl)-5-oxo-4,5-dihydro-1H-1,2,4-triazol-1-yl)phenoxy)-3-fluoropyridin-2-yl)-3-methoxyazetidine-3-carbonitrile] was tested. Which IC50 did it give?
Answer: Its IC50 is < 0.1 µM.

Same assay, conditions: Homo sapiens; HT-29 cells stimulated with TNF-α (10 ng/ml), SMAC mimetic (6 μM) and zVAD-FMK (10 μM); 20 hours; CellTiter-Glo ATP luminescence; geometric mean IC50 from 10 points; read-out: Activity

Question: With `Cc1nc(C(N)=O)oc1Oc1ccc(-n2nc3n(c2=O)[C@H](c2c(F)cccc2F)CC3)cc1F` (single isomer, unassigned) [Example 701] as the compound, how does the IC50 read?
Answer: The IC50 was < 0.1 µM.

Question: For `Cc1nc(C(N)=O)c(Oc2ccc(-n3ncn(Cc4c(F)cccc4F)c3=O)cc2F)s1` [Example 100, 5-(4-(4-(2,6-difluorobenzyl)-5-oxo-4,5-dihydro-1H-1,2,4-triazol-1-yl)-2-fluorophenoxy)-2-methylthiazole-4-carboxamide], which IC50 is on record?
Answer: The IC50 was 0.1 to 1 µM.

Question: How did the IC50 turn out when `Cn1nc(C(N)=O)cc1Oc1ccc(-n2nc3n(c2=O)C(c2ccccc2)CC3)cc1F` (stereo not shown) [Example 29, 5-(2-fluoro-4-(3-oxo-5-phenyl-6,7-dihydro-3H-pyrrolo[2,1-c][1,2,4]triazol-2(5H)-yl)phenoxy)-1-methyl-1H-pyrazole-3-carboxamide] was run?
Answer: The IC50 was < 0.1 µM.

Question: With `NC(=O)c1cnc(Oc2ccc(-n3ncn(Cc4c(F)cccc4F)c3=O)cc2)s1` [Example 82, 2-(4-(4-(2,6-difluorobenzyl)-5-oxo-4,5-dihydro-1H-1,2,4-triazol-1-yl)phenoxy)thiazole-5-carboxamide] as the compound, how does the IC50 read?
Answer: The IC50 was 0.1 to 1 µM.

Question: Which IC50 does the source give for `Cc1ncsc1Oc1ccc(-n2nc3n(c2=O)[C@@H](c2ccccc2)CC3)cc1F` (single isomer, unassigned) [Example 4] here?
Answer: The IC50 was < 0.1 µM.

Question: `Cc1c(C(N)=O)noc1Oc1ccc(-n2nc3n(c2=O)[C@H](c2ccccc2)CC3)cc1F` (single isomer, unassigned) [Example 695] was tested. Which IC50 did it give?
Answer: Its IC50 is < 0.1 µM.
